Data published in article PMC9143043, “Synthesis and Biological Evaluation of 5′-O-Fatty Acyl Ester Derivatives of 3′-Fluoro-2′,3′-dideoxythymidine as Potential Anti-HIV Microbicides” (Molecules, 2022).

Experiments:
sperm = assay: Spermicidal activity (sperm viability and motility); type: cell-based; settings: abstract; versus N-9 positive control
Protocol: In this study, several fatty acyl conjugates of nucleosides (5–8, 10–12, 15, and 16) were tested for their spermicidal activities. […] Detailed data analysis is available in the Supplementary Materials (Figure S2).
(§1) Human T lymphoblastoid cells (CCRF-CEM, ATCC No. CCL-119) were grown to 70% confluency in a culture medium. CCRF-CEM cells were incubated with 10 µM of the compounds and mixed with trypan blue (0.1%) to color the dead cells. The percentage of viability was calculated by using a Cellometer Auto T.4 (Nexcelom Bioscience). The cell viability against the vaginal cells (VK-2/E6E7) was conducted according to the previously reported procedure. The effect of conjugates on the sperm viability and mobility was evaluated as described previously.

[1] = tested on: HIV-1 98USMSC5016 (C-Wild Type); assay: PBMC multi-round infection assay, clinical isolate 98USMSC5016; type: cell-based; settings: Human immunodeficiency virus 1
Protocol: (§2) Based on a preliminary screening, conjugates 5 and 8 were evaluated for their ability to inhibit a drug-resistant virus in a peripheral blood mononuclear cell (PBMC) assay. In this assay, FLT, 5, and 8 were tested against B- and C-wild type and A-17 and 4755–5 multidrug-resistant (MDR) clinical isolates of HIV-1, where compounds were incubated with PBMCs for 6 h and then washed off before the addition of the virus and further culture for 7 days.
(§3) For the assessment of compounds against the wild type (WT; R5; clones = 94US3393IN [B subtype] and 98USMSC5016 [C subtype]) and drug-resistant (clones = 4755−5 and A17) HIV-1 clinical isolates, PHA-P stimulated cells from at least two normal donors were pooled, diluted in fresh media, and plated in the interior wells of a 96-well round-bottom microplate. Pooling PBMCs from more than one donor was used to minimize the variability observed between the individual donors, which results from the quantitative and qualitative differences in HIV infection and overall response to the PHA and IL-2 of primary lymphocyte populations. Each plate contained virus/cell control wells (cells + virus), experimental wells (drug + cells + virus), and compound control wells (drug + media, no cells, necessary for MTS monitoring of cytotoxicity). Test drug dilutions were prepared in microtiter tubes, and each concentration was placed in appropriate wells. Following the addition of the drug dilutions to the PBMCs, a predetermined dilution of virus stock was then placed in each test well (final MOI ≅ 0.1). Because HIV-1 is not cytopathic to PBMCs, the same assay plate can be used for both the antiviral efficacy and cytotoxicity measurements. Compounds were incubated with virus and cells in a 96-well format for 6 h. The cells were then washed by removing 75% of the medium (150 μL) and replacing it with 150 μL of fresh (no drug) medium. The plates were then centrifuged (∼200 g) for 10 min, after which 150 μL of the medium was removed, and an additional 150 μL of fresh medium was added to each well and further incubated for 6 days or until peak reverse transcriptase (RT) activity was detected. A microtiter plate-based RT reaction was utilized. Incorporated radioactivity (counts per minute, CPM) was quantified using standard liquid scintillation techniques. Compound IC50 (50%, inhibition of virus replication) was calculated using statistical software and regression analysis. A cellular uptake study was conducted for fluorescence conjugates 23 and 24 using a previously published procedure with minor modifications. All of the experiments were conducted in triplicate.

Cytotoxicity assay (MTS) = type: cell-based; settings: human, HeLa cells (ATCC CCL-2.1), Table 2; MTS; 50% effective concentration
[2] = tested on: human vaginal cells (VK-2/E6E7); assay: Vaginal cell cytotoxicity (MTS assay); type: cell-based; settings: 6 h incubation; 31-1000 µg/mL
Protocol: A commercially used spermicidal agent (N-9) and conjugate cytotoxicity was evaluated using immortalized human vaginal cells (VK-2/E6E7). […] Observed cytotoxicity from N-9 could be correlated with the generation of higher levels of cytokines by N-9.
as §1
Figure 2 (A) Dose–response curves of the vaginal cytotoxicity in VK-2 cells (MTS assay) for 5, 6, 8, and N-9 after 6 h incubations. (B) Proinflammatory cytokine (IL-1α) production in the VK-2 cells (ELISA) after a 6 h incubation in the presence of 5, 6, 8, and N-9.

HIV-1 A-17 MDR (B-NNRTI) = assay: PBMC multi-round infection assay, resistant isolate A-17; type: cell-based
Protocol: as §2, §3

[3] = tested on: cell-associated HIV-1 IIIB (infected SulT1 cells); assay: Cell-associated transmission assay (IIIB); type: cell-based; settings: Human immunodeficiency virus 1, IIIB, read-out: (CA) EC50, Table 2; cell-associated transmission assay (IIIB)
Protocol: Anti-HIV activities of the compounds were evaluated according to the previously reported procedure. In summary, the HeLa (Human cervical carcinoma: ATCC CCL-2.1) cell line was used to measure the inactivation of both the cell-free virus preparations and virus-infected cell preparations. The cells were plated in culture plates 24 h prior to each experiment. Cell-free viral preparations of HIV-1 strains IIIB (lymphocytotropic strain) and BaL (monocytotropic strain) were used for the cell-free assay. For the cell-associated assay, the SulT1 cells were infected with IIIB virus 5 days prior to the experiment. Cell-free virus and virus-infected cells were mixed with different compounds and diluted to make different concentrations. The mixture was further diluted with the buffer and added to the HeLa cells.

HIV-1 4755-5 MDR (B-MDR) = assay: PBMC multi-round infection assay, resistant isolate 4755-5; type: cell-based
Protocol: as §2, §3

[4] = Log D by liquid-liquid distribution chromatography; type: physicochemical; settings: octanol-coated column with octanol-saturated mobile phases, pH 7.4
Protocol: Physicochemical properties including pKa, Log D, and solubility were determined for 5 (as a model compound). […] It was not possible to measure the partition coefficient (Log P) of the fatty acyl derivatives of FLT and AZT in a standard n-octanol/water mixture because of the insolubility of the compounds in water. The cLog P value was calculated as 5.23 using ChemDraw. […] Since most of 5 is in its neutral form, the Log D value will correspond to the Log P value.
The Log P of 5 was initially investigated by the pH-metric (potentiometric) method. The sample was titrated in three triple titrations from pH 2.5 to pH 11.9 at concentrations of 0.7–1.1 mM in various ratios of octanol/water. The results indicated high sample lipophilicity, although the Log P could not be determined due to the apparent pKa in octanol shifting out of the measurable range. Therefore, the Log D of 5 at pH 7.4 was measured as 5.04 using liquid–liquid distribution chromatography. The Profiler LDA is an isocratic chromatography system that uses an octanol-coated column with octanol saturated mobile phases adjusted to pH 7.4. […]

[5] = Human immunodeficiency virus 1, PBMC

With `Cc1cn([C@H]2C[C@H](F)[C@@H](COC(=O)CCCCCCCCCCCN=[N+]=[N-])O2)c(=O)[nH]c1=O` [Compound 5, 3′-fluoro-2′,3′-dideoxy-5′-O-(12-azidododecanoyl)thymidine] the “effect on sperm viability” value (sperm) was “did not alter vaginal cell and sperm viability”, the IC50 [1] was 0.0021 µM and the IC90 [1] was 0.0086 µM. The EC50 (Cytotoxicity assay (MTS)) was 1600 µM, the “cytotoxicity to vaginal cells” value [2] was “did not show significant cytotoxic effects” and the IC50 (HIV-1 A-17 MDR (B-NNRTI); [5]) was 0.0044 µM. For the same compound, the IC90 (HIV-1 A-17 MDR (B-NNRTI); [5]) was 0.0141 µM, the “fold more potent than FLT against A-17” value (HIV-1 A-17 MDR (B-NNRTI); versus FLT IC50) was “at least 6 fold” and the EC50 [3] was 12.6 µM. For the same compound, the IC50 (HIV-1 4755-5 MDR (B-MDR); [5]) was 0.0396 µM, the IC90 (HIV-1 4755-5 MDR (B-MDR); [5]) was 0.507 µM and the “fold more potent than FLT against 4755-5” value (HIV-1 4755-5 MDR (B-MDR); versus FLT IC50) was ≥ 2.7 fold. The chromatographic logD [4] was 5.04.
